We go through 26 compounds from PubChem BioAssay AID330 (DTP/NCI, 2004).

Several values for one entry are separate records, joined by “and”; a condition that tells them apart may be missing. Equal values may be shown once. Toxic doses and inconclusive results are not listed.

This experiment relates to P388 leukemia ip, CD2F1 mice, survival T/C. In words: NCI In Vivo Anticancer Drug Screen. Data for tumor model P388 Leukemia (intraperitoneal) in CD2F1 (CDF1) mice. The following applies: endpoint: median survival time, higher = longer survival. In a few lines: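 Mice carrying the transplanted tumor received test compound or vehicle. Survival was recorded in each group, and the value is the treated-group measurement divided by that of the vehicle-treated control group.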

The mark [1] stands for this setting: dose: 100.0 mg/kg/injection, schedule: Q01DX001 (ip), vehicle: Klucel (hydroxypropylcellulose) (HPC).
[2] abbreviates: dose: 200.0 mg/kg/injection, schedule: Q01DX001 (ip), vehicle: Klucel (hydroxypropylcellulose) (HPC).
[3] abbreviates: dose: 50.0 mg/kg/injection, schedule: Q01DX005 (ip), vehicle: Klucel (hydroxypropylcellulose) (HPC).
Where [4] appears, read: dose: 100.0 mg/kg/injection, schedule: Q01DX005 (ip), vehicle: Klucel (hydroxypropylcellulose) (HPC).
[5] abbreviates: dose: 200.0 mg/kg/injection, schedule: Q01DX005 (ip), vehicle: Klucel (hydroxypropylcellulose) (HPC).
[6] abbreviates: dose: 50.0 mg/kg/injection, schedule: Q01DX005 (ip), vehicle: saline.
The mark [7] stands for this setting: dose: 100.0 mg/kg/injection, schedule: Q01DX005 (ip), vehicle: saline.
Setting [8] is: dose: 50.0 mg/kg/injection, schedule: Q01DX001 (ip), vehicle: Klucel (hydroxypropylcellulose) (HPC).
[9] abbreviates: dose: 100.0 mg/kg/injection, schedule: Q01DX009 (ip), vehicle: saline with Tween-80.
Setting [10] is: dose: 200.0 mg/kg/injection, schedule: Q01DX009 (ip), vehicle: saline with Tween-80.
Where [11] appears, read: dose: 50.0 mg/kg/injection, schedule: Q01DX009 (ip), vehicle: saline with Tween-80.
[12] abbreviates: dose: 12.5 mg/kg/injection, schedule: Q01DX009 (ip), vehicle: saline.
Setting [13] is: dose: 25.0 mg/kg/injection, schedule: Q01DX009 (ip), vehicle: saline.
The mark [14] stands for this setting: dose: 50.0 mg/kg/injection, schedule: Q01DX009 (ip), vehicle: saline.

`CCOc1cc2c(cc1C(CC)c1ccc(O)cc1)OCO2` (stereo not given): the T/C runs as follows: (dose: 50.0 mg/kg/injection, schedule: Q01DX005 (ip), vehicle: distilled water + Tween-80) 93 % of control; (dose: 100.0 mg/kg/injection, schedule: Q01DX005 (ip), vehicle: distilled water + Tween-80) 93 % of control; (dose: 200.0 mg/kg/injection, schedule: Q01DX005 (ip), vehicle: distilled water + Tween-80) 96 % of control.
With `Nc1c(-c2noc(=O)[nH]2)ncn1Cc1ccccc1`, the T/C is, setting by setting: under setting [1], 97 % of control; under setting [2], 92 % of control; (dose: 400.0 mg/kg/injection, schedule: Q01DX001 (ip), vehicle: Klucel (hydroxypropylcellulose) (HPC)) 99 % of control.
For `O=C(CSC1CCc2ccccc21)N/N=C/c1ccccc1O` (stereo not given), the T/C under setting [3] was 96 % of control, the T/C under setting [4] is 98 % of control and the T/C under setting [5] is 89 % of control.
`CCCCCCC(C)NN` (stereo not given): under “dose: 100.0 mg/kg/injection, schedule: Q04DX003 (ip), vehicle: saline with Tween-80”, the T/C is 86 % of control.
`C#CCC(N)C(=O)O` (stereo not given): the T/C runs as follows: (dose: 12.5 mg/kg/injection, schedule: Q01DX005 (ip), vehicle: saline) 107 % of control; (dose: 25.0 mg/kg/injection, schedule: Q01DX005 (ip), vehicle: saline) 111 % of control; under setting [6], 100 % of control and 106 % of control; under setting [7], 108 % of control.
Consider `COc1ccc(NC(=O)c2cc3ccc4c5ccccc5[nH]c4c3cc2O)cc1`, for which the T/C is, setting by setting: (dose: 50.0 mg/kg/injection, schedule: Q01DX005 (ip), vehicle: saline with Tween-80) 90 % of control; (dose: 100.0 mg/kg/injection, schedule: Q01DX005 (ip), vehicle: saline with Tween-80) 88 % of control.
`CC1(C)CC(=O)C(CSc2ccccc2)C(=O)C1`: the T/C is, setting by setting: (dose: 12.5 mg/kg/injection, schedule: Q01DX001 (ip), vehicle: saline) 108 % of control; (dose: 25.0 mg/kg/injection, schedule: Q01DX001 (ip), vehicle: Klucel (hydroxypropylcellulose) (HPC)) 100 % of control; (dose: 25.0 mg/kg/injection, schedule: Q01DX001 (ip), vehicle: saline) 111 % of control; under setting [8], 100 % of control and 105 % of control; (dose: 50.0 mg/kg/injection, schedule: Q01DX001 (ip), vehicle: saline) 112 % of control; under setting [1], 100 % of control.
With `COc1cc2c(cc1C1CCCCCc3c1n(C)c1ccccc31)C1CCCCC1N2C` (stereo not given), the T/C reads like this: (dose: 12.5 mg/kg/injection, schedule: Q01DX001 (ip), vehicle: distilled water + Tween-80) 108 % of control; (dose: 25.0 mg/kg/injection, schedule: Q01DX001 (ip), vehicle: distilled water + Tween-80) 116 % of control; (dose: 50.0 mg/kg/injection, schedule: Q01DX001 (ip), vehicle: distilled water + Tween-80) 101 % of control; (dose: 100.0 mg/kg/injection, schedule: Q01DX001 (ip), vehicle: distilled water + Tween-80) 111 % of control; (dose: 200.0 mg/kg/injection, schedule: Q01DX001 (ip), vehicle: distilled water + Tween-80) 111 % of control.
As for `c1ccc2nc(NCCSSCCNc3cnc4ccccc4n3)cnc2c1`, the T/C under setting [9] was 86 % of control; the T/C under setting [10] was 86 % of control; the T/C (dose: 400.0 mg/kg/injection, schedule: Q01DX009 (ip), vehicle: saline with Tween-80) is 86 % of control.
Regarding `CCOC(=O)c1ccc(NC(=NC(C)(C)C)C(C)C)cc1`, the T/C was 96 % of control under setting [11], 101 % of control under setting [9] and 91 % of control under setting [10].
Regarding `COc1nc(Nc2cccc(F)c2)nc(OC)n1`, the T/C by setting is: (dose: 50.0 mg/kg/injection, schedule: Q01DX009 (ip), vehicle: Klucel (hydroxypropylcellulose) (HPC)) 98 % of control; (dose: 100.0 mg/kg/injection, schedule: Q01DX009 (ip), vehicle: Klucel (hydroxypropylcellulose) (HPC)) 95 % of control; (dose: 200.0 mg/kg/injection, schedule: Q01DX009 (ip), vehicle: Klucel (hydroxypropylcellulose) (HPC)) 101 % of control.
Regarding `CCC(Nc1nncs1)Nc1nncs1`, the T/C runs as follows: under setting [3], 100 % of control; under setting [4], 99 % of control; under setting [5], 98 % of control.
For `Cc1ccc(NC(=O)Oc2c(C)cc(Cl)cc2C)c([N+](=O)[O-])c1`, the T/C is, setting by setting: under setting [11], 95 % of control; under setting [10], 95 % of control.
Take `COc1ccccc1N=Nc1c(O)n(-c2ccccc2Cl)c(=S)n(-c2ccccc2OC)c1=O`: the T/C was 102 % of control under setting [8], 102 % of control under setting [1] and 101 % of control under setting [2].
In the case of `CCSC(=NC)Nc1ccc(Oc2ccc(Cl)cc2)cc1`, the T/C was 101 % of control and 102 % of control (dose: 12.5 mg/kg/injection, schedule: Q01DX005 (ip), vehicle: Klucel (hydroxypropylcellulose) (HPC)); 105 % of control and 106 % of control (dose: 25.0 mg/kg/injection, schedule: Q01DX005 (ip), vehicle: Klucel (hydroxypropylcellulose) (HPC)); 102 % of control and 109 % of control and 123 % of control under setting [3]; 100 % of control and 106 % of control and 107 % of control under setting [4].
For the compound `COc1cccc2sc(-c3ccccc3)cc(=O)c12`, the T/C was 93 % of control under setting [3], 93 % of control under setting [4] and 96 % of control under setting [5].
As to `COC(=O)c1cc(=O)nc(N/N=C/c2ccccc2O)s1`, the T/C was 98 % of control under setting [3], 100 % of control under setting [4] and 108 % of control under setting [5].
Consider `CCCC(O)(CCC)/C(C)=N/O`, for which the T/C is, setting by setting: (dose: 12.5 mg/kg/injection, schedule: Q01DX009 (ip), vehicle: saline with Tween-80) 99 % of control; (dose: 25.0 mg/kg/injection, schedule: Q01DX009 (ip), vehicle: saline with Tween-80) 107 % of control; under setting [11], 87 % of control and 98 % of control; under setting [10], 88 % of control.
On to `COc1ccc2c(c1)C1CN(Cc3ccccc31)C2` (stereo not given), for which the T/C (dose: 100.0 mg/kg/injection, schedule: Q01DX001 (ip), vehicle: saline with Tween-80) was 99 % of control.
As to `C=C(C)[C@H]1C[C@@H]2O[C@]2(C)[C@@H](O)C1`, the T/C runs as follows: (dose: 100.0 mg/kg/injection, schedule: Q04DX002 (ip), vehicle: saline) 94 % of control; (dose: 200.0 mg/kg/injection, schedule: Q04DX002 (ip), vehicle: saline) 102 % of control; (dose: 400.0 mg/kg/injection, schedule: Q04DX002 (ip), vehicle: saline) 96 % of control.
As for `COC(=O)C1C(O)C(C)C(O)C(C)(O)/C=C/C=C(C)C(=O)Nc2c(C)c(OC(C)=O)c3c(c2O)C(=O)C(C)=C2OCOC(=C23)C(C)=CC(C)(O)C(O)C(C)C1OC(C)=O` (stereo not given), the T/C (dose: 60.0 mg/kg/injection, schedule: Q01DX005 (ip), vehicle: saline with Tween-80) is 95 % of control; the T/C (dose: 120.0 mg/kg/injection, schedule: Q01DX005 (ip), vehicle: saline with Tween-80) is 105 % of control; the T/C (dose: 240.0 mg/kg/injection, schedule: Q01DX005 (ip), vehicle: saline with Tween-80) is 108 % of control.
Turning to `CC1=CC(=O)N(NC(N)=O)C1=O`, the T/C reads like this: (dose: 6.25 mg/kg/injection, schedule: Q01DX009 (ip), vehicle: saline) 102 % of control and 110 % of control; under setting [12], 105 % of control and 108 % of control; under setting [13], 110 % of control and 123 % of control; under setting [14], 109 % of control and 122 % of control.
Take `CC(C)(C)C(=N)N`: the T/C was 100 % of control under setting [12], 108 % of control under setting [13] and 102 % of control under setting [14].
As for `O=C(O)CCC(=O)OCN1C(=O)C2C3C=CC(C2C1=O)C1C2C(=O)N(COC(=O)CCC(=O)O)C(=O)C2C31` (stereo not given), the T/C runs as follows: (dose: 25.0 mg/kg/injection, schedule: Q01DX009 (ip), vehicle: water) 103 % of control and 107 % of control (2×); (dose: 50.0 mg/kg/injection, schedule: Q01DX009 (ip), vehicle: water) 115 % of control and 116 % of control and 122 % of control; (dose: 100.0 mg/kg/injection, schedule: Q01DX009 (ip), vehicle: water) 165 % of control and 178 % of control.
`CC1=CC[N+](C)(C)C(C(N)=O)C1` (stereo not given): the T/C reads like this: under setting [6], 108 % of control; under setting [7], 105 % of control.
`CCCCC(C)(CCN)CCCC`: the T/C runs as follows: (dose: 25.0 mg/kg/injection, schedule: Q01DX009 (ip), vehicle: suspension in saline) 103 % of control; (dose: 50.0 mg/kg/injection, schedule: Q01DX009 (ip), vehicle: suspension in saline) 105 % of control; (dose: 100.0 mg/kg/injection, schedule: Q01DX009 (ip), vehicle: suspension in saline) 106 % of control.
